Measurements published in patent publication USRE39591E1, “6-O-substituted ketolides having antibacterial activity” (Abbott Laboratories, priority 1996, dated 2007).
Converted amounts (≈) assume the structure as drawn.

System: up to 32 different microorganisms
Test: in vitro antibacterial activity (MIC), agar dilution on Brain Heart Infusion (BHI) agar with Steers replicator
Type: cell-based
Details: unit assumed
How it was run: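 Agar dilution MIC: twelve successive compound dilutions in BHI agar, spot-inoculated with 1:100 (1:10 for slow growers) organism dilutions by Steers replicator, incubated 35-37° C for 20-24 h. MIC is lowest concentration showing no growth, slight haze or sparse colonies versus drug-free control; erythromycin A as class reference.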

[1] = Candida albicans CCH 442 (code TT)
[2] = Enterococcus faecism ATCC 8043 (code II)
[3] = Escherichia coli DC-2 (code SS)
[4] = Escherichia coli JUHL (code QQ)
[5] = Haemophilis influenzae DILL AMP R (code WW)
[6] = Micrococcus luteus ATCC 4698 (code PP)
[7] = Micrococcus luteus ATCC 9341 (code OO)
[8] = Mycobacterium smegmatis ATCC 114 (code UU)
[9] = Nocardia Asteroides ATCC9970 (code VV)
[10] = Staphylococcus aureus 1775 (code GG)
[11] = Staphylococcus aureus A5177 (code BB)
[12] = Staphylococcus aureus A-5278 (code CC)
[13] = Staphylococcus aureus ATCC 6538P (code AA)
[14] = Staphylococcus aureus CMX 553 (code FF)
[15] = Staphylococcus aureus CMX 642A (code DD)
[16] = Staphylococcus aureus NCTC10649M (code EE)
[17] = Staphylococcus epidermidis 3519 (code HH)
[18] = Streptococcus Pneumonia 5649 (code ZZA)
[19] = Streptococcus Pneumonia 5979 (code ZZ)
[20] = Streptococcus Pneumonia ATCC6303 (code XX)
[21] = Streptococcus Pneumonia GYR 1171 (code YY)
[22] = Streptococcus agalactiae CMX 508 (code KK)
[23] = Streptococcus bovis A-5169 (code JJ)
[24] = Streptococcus pyogenes 930 (code MM)
[25] = Streptococcus pyogenes EES61 (code LL)
[26] = Streptococcus pyogenes PIU 2548 (code NN)

Question: How did the MIC (organism code AA) turn out when `CC[C@H]1OC(=O)[C@H](C)C(=O)[C@H](C)[C@@H](O[C@@H]2O[C@H](C)C[C@H](N(C)C)[C@H]2O)[C@@](C)(OCCNOCc2ccccc2)C[C@@H](C)C(=O)[C@H](C)[C@H]2NC(=O)O[C@@]21C` [Example 237, Compound of Formula (IX): L is CO, T is NH, R is —CH2CH2NHOCH2(phenyl)] was run?
Answer: Its MIC is 0.39 µg/mL.

Question: And the MIC (organism code BB)?
Answer: The MIC was 0.39 µg/mL.

Question: And the MIC (organism code CC)?
Answer: The MIC was > 100 µg/mL.

Question: What about the MIC (organism code DD) of the same compound?
Answer: The MIC was 0.39 µg/mL.

Question: What about the MIC (organism code EE) of the same compound?
Answer: The MIC was 0.39 µg/mL.

Question: And the MIC (organism code FF)?
Answer: The MIC was 0.39 µg/mL.

Question: What about the MIC (organism code GG) of the same compound?
Answer: Its MIC is > 100 µg/mL.

Question: And the MIC (organism code HH)?
Answer: Its MIC is 0.39 µg/mL.

Question: And the MIC (organism code II)?
Answer: Its MIC is 0.1 µg/mL.

Question: And the MIC (organism code JJ)?
Answer: The MIC was 0.05 µg/mL.

Question: What about the MIC (organism code KK) of the same compound?
Answer: Its MIC is 0.05 µg/mL.

Question: And the MIC (organism code LL)?
Answer: Its MIC is 0.05 µg/mL.

Question: What about the MIC (organism code MM) of the same compound?
Answer: Its MIC is > 100 µg/mL.

Question: And the MIC (organism code NN)?
Answer: The MIC was 0.2 µg/mL.

Question: And the MIC (organism code OO)?
Answer: The MIC was 0.05 µg/mL.

Question: What about the MIC (organism code PP) of the same compound?
Answer: Its MIC is 0.39 µg/mL.

Question: What about the MIC (organism code QQ) of the same compound?
Answer: The MIC was > 100 µg/mL.

Question: And the MIC (organism code RR)?
Answer: Its MIC is 0.39 µg/mL.

Question: What about the MIC (organism code SS) of the same compound?
Answer: The MIC was > 100 µg/mL.

Question: And the MIC (organism code TT)?
Answer: Its MIC is > 100 µg/mL.

Question: And the MIC (organism code UU)?
Answer: The MIC was 0.78 µg/mL.

Question: And the MIC (organism code VV)?
Answer: Its MIC is 0.39 µg/mL.

Question: And the MIC (organism code WW)?
Answer: The MIC was 16 µg/mL.

Question: And the MIC (organism code XX)?
Answer: Its MIC is 0.03 µg/mL.

Question: And the MIC (organism code YY)?
Answer: Its MIC is 0.03 µg/mL.

Question: And the MIC (organism code ZZ)?
Answer: Its MIC is > 128 µg/mL.

Question: What about the MIC (organism code ZZA) of the same compound?
Answer: The MIC was 0.05 µg/mL.

Question: What does the source list for `CCC1OC(=O)C(C)C(=O)C(C)C(OC2OC(C)CC(N(C)C)C2O)C(C)(OCC=Cc2ccc3c(c2)OCO3)CC(C)C(=O)C(C)C2NC(=O)OC12C` (stereo not drawn) [Example 188, R is —CH2CH═CH-(3,4-methylenedioxyphenyl)]?
Answer: MIC [1]: > 100 µg/mL; MIC [2]: 0.05 µg/mL (≈ 0.0659 µM); MIC [3]: > 100 µg/mL; MIC [4]: > 100 µg/mL; MIC (Escherichia coli SS (code RR)): 0.78 µg/mL (≈ 1.03 µM); MIC [5]: 8 µg/mL (≈ 10.5 µM); MIC [6]: 0.2 µg/mL (≈ 0.264 µM); MIC [7]: 0.02 µg/mL (≈ 0.0264 µM); MIC [8]: 0.78 µg/mL (≈ 1.03 µM); MIC [9]: 0.39 µg/mL (≈ 0.514 µM); MIC [10]: > 100 µg/mL; MIC [11]: 0.1 µg/mL (≈ 0.132 µM); MIC [12]: > 100 µg/mL; MIC [13]: 0.1 µg/mL (≈ 0.132 µM); MIC [14]: 0.1 µg/mL (≈ 0.132 µM); MIC [15]: 0.1 µg/mL (≈ 0.132 µM); MIC [16]: 0.2 µg/mL (≈ 0.264 µM); MIC [17]: 0.2 µg/mL (≈ 0.264 µM); MIC [18]: 1 µg/mL (≈ 1.32 µM); MIC [19]: > 64 µg/mL; MIC [20]: 0.03 µg/mL (≈ 0.0395 µM); MIC [21]: 0.03 µg/mL (≈ 0.0395 µM); MIC [22]: ≤ 0.005 µg/mL; MIC [23]: ≤ 0.005 µg/mL; MIC [24]: 25 µg/mL (≈ 32.9 µM); MIC [25]: 0.01 µg/mL (≈ 0.0132 µM); MIC [26]: 0.1 µg/mL (≈ 0.132 µM)

Question: What does the source list for `C=C(C#CCO[C@@]1(C)C[C@@H](C)C(=O)[C@H](C)[C@H]2NC(=O)O[C@]2(C)[C@@H](CC)OC(=O)[C@H](C)C(=O)[C@H](C)[C@H]1O[C@@H]1O[C@H](C)C[C@H](N(C)C)[C@H]1O)c1ccccc1` [Example 257, Compound of Formula (IX): L is CO, T is NH, R is —CH2—C≡C-(1-phenylethenyl)]?
Answer: MIC (organism code AA): 0.2 µg/mL; MIC (organism code BB): 0.2 µg/mL; MIC (organism code CC): > 100 µg/mL; MIC (organism code DD): 0.2 µg/mL; MIC (organism code EE): 0.2 µg/mL; MIC (organism code FF): 0.2 µg/mL; MIC (organism code GG): > 100 µg/mL; MIC (organism code HH): 0.2 µg/mL; MIC (organism code II): 0.1 µg/mL; MIC (organism code JJ): 0.01 µg/mL; MIC (organism code KK): 0.05 µg/mL; MIC (organism code LL): 0.01 µg/mL; MIC (organism code MM): 100 µg/mL; MIC (organism code NN): 0.2 µg/mL; MIC (organism code OO): 0.05 µg/mL; MIC (organism code PP): 0.2 µg/mL; MIC (organism code QQ): > 100 µg/mL; MIC (organism code RR): 0.78 µg/mL; MIC (organism code SS): > 100 µg/mL; MIC (organism code TT): > 100 µg/mL; MIC (organism code UU): 0.39 µg/mL; MIC (organism code VV): 0.2 µg/mL; MIC (organism code WW): 8 µg/mL; MIC (organism code XX): 0.125 µg/mL; MIC (organism code YY): 0.125 µg/mL; MIC (organism code ZZ): 128 µg/mL; MIC (organism code ZZA): 0.5 µg/mL

Question: `CC[C@H]1OC(=O)[C@H](C)C(=O)[C@H](C)[C@@H](O[C@@H]2O[C@H](C)C[C@H](N(C)C)[C@H]2O)[C@@](C)(OCCNCCc2ccccc2)C[C@@H](C)C(=O)[C@H](C)[C@@H](O)[C@]1(C)O` [Example 10] was tested. Which MIC [1] did it give?
Answer: Its MIC is > 100 µg/mL.

Question: And the MIC [2]?
Answer: The MIC was 6.2 µg/mL (≈ 8.6 µM).

Question: What about the MIC [3] of the same compound?
Answer: Its MIC is > 100 µg/mL.

Question: What about the MIC [4] of the same compound?
Answer: The MIC was > 100 µg/mL.

Question: What about the MIC (Escherichia coli SS (code RR)) of the same compound?
Answer: Its MIC is 1.56 µg/mL (≈ 2.16 µM).

Question: And the MIC [5]?
Answer: The MIC was 64 µg/mL (≈ 88.8 µM).

Question: And the MIC [6]?
Answer: The MIC was 1.56 µg/mL (≈ 2.16 µM).

Question: And the MIC [7]?
Answer: The MIC was 0.2 µg/mL (≈ 0.277 µM).

Question: What about the MIC [8] of the same compound?
Answer: Its MIC is 12.5 µg/mL (≈ 17.3 µM).

Question: What about the MIC [9] of the same compound?
Answer: Its MIC is 1.56 µg/mL (≈ 2.16 µM).

Question: What about the MIC [10] of the same compound?
Answer: Its MIC is > 100 µg/mL.

Question: And the MIC [11]?
Answer: Its MIC is 6.2 µg/mL (≈ 8.6 µM).

Question: And the MIC [12]?
Answer: Its MIC is > 100 µg/mL.

Question: And the MIC [13]?
Answer: The MIC was 6.2 µg/mL (≈ 8.6 µM).

Question: What about the MIC [14] of the same compound?
Answer: The MIC was 6.2 µg/mL (≈ 8.6 µM).

Question: What about the MIC [15] of the same compound?
Answer: The MIC was 6.2 µg/mL (≈ 8.6 µM).

Question: And the MIC [16]?
Answer: The MIC was 6.2 µg/mL (≈ 8.6 µM).

Question: And the MIC [17]?
Answer: Its MIC is 6.2 µg/mL (≈ 8.6 µM).

Question: What about the MIC [18] of the same compound?
Answer: The MIC was 4 µg/mL (≈ 5.55 µM).

Question: And the MIC [19]?
Answer: The MIC was > 128 µg/mL.

Question: What about the MIC [20] of the same compound?
Answer: The MIC was 2 µg/mL (≈ 2.77 µM).

Question: And the MIC [21]?
Answer: The MIC was 2 µg/mL (≈ 2.77 µM).

Question: What about the MIC [22] of the same compound?
Answer: Its MIC is 1.56 µg/mL (≈ 2.16 µM).

Question: What about the MIC [23] of the same compound?
Answer: Its MIC is 0.2 µg/mL (≈ 0.277 µM).

Question: And the MIC [24]?
Answer: The MIC was > 100 µg/mL.

Question: And the MIC [25]?
Answer: The MIC was 0.39 µg/mL (≈ 0.541 µM).

Question: What about the MIC [26] of the same compound?
Answer: Its MIC is 1.56 µg/mL (≈ 2.16 µM).
